Results: patent publication US20260297060A1, “COMPOUNDS FOR THE DEGRADATION OF MUTANT BRAF” (C4 THERAPEUTICS, INC., priority 2023, published 2026)
Like-named read-outs stand apart in the source and are kept apart here.

What was measured:
[1] = target: T1, BRAF V600E (Homo sapiens, UniProt P15056+Q96SW2, V600E); assay: BRAF V600E HiBiT Degradation Assay; format: cell-based; settings: for Emax: read-out: HiBiT-Degradation A375.10 BRAF 2 hours Emax
T1 construct: knock-in of the HiBiT tag to the endogenous BRAF V600E locus; host or cells: A375.10 (A375 clonal line, CRISPR HiBiT knock-in at the endogenous BRAF V600E locus)
T1 sequence (P15056 whole entry V600E): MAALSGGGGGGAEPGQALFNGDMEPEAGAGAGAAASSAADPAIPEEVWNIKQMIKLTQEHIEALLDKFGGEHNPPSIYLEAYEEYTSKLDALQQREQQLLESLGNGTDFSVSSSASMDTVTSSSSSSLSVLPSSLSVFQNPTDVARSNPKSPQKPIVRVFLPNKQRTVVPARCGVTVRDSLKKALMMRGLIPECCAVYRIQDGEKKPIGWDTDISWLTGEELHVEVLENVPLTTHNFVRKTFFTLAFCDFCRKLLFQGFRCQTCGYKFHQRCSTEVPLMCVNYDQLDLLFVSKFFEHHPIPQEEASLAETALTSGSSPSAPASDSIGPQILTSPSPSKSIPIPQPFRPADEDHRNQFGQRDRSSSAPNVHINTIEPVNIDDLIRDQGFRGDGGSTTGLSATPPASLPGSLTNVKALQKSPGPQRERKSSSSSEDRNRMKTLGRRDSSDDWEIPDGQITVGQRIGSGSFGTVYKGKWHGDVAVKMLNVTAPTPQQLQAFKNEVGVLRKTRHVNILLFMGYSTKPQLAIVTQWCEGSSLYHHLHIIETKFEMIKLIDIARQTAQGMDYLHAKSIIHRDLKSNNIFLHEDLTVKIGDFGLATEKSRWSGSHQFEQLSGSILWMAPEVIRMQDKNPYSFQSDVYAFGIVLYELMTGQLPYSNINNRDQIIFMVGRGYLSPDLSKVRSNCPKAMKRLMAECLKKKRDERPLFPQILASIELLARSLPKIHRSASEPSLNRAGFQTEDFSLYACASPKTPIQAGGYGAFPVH
T1 sequence (Q96SW2 whole entry): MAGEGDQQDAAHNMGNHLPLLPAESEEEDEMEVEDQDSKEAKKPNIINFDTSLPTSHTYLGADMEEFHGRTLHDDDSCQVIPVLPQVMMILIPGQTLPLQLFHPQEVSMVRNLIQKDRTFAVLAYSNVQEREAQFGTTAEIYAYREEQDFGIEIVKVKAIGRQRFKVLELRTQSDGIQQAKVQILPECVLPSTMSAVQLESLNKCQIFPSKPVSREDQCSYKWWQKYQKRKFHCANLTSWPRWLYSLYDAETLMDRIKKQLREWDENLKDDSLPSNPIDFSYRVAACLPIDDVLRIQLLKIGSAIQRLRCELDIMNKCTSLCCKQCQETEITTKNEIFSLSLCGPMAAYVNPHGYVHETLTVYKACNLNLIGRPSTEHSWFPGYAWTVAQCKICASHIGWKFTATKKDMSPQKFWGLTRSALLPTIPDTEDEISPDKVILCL
T1 sequence (Q16531 whole entry partner): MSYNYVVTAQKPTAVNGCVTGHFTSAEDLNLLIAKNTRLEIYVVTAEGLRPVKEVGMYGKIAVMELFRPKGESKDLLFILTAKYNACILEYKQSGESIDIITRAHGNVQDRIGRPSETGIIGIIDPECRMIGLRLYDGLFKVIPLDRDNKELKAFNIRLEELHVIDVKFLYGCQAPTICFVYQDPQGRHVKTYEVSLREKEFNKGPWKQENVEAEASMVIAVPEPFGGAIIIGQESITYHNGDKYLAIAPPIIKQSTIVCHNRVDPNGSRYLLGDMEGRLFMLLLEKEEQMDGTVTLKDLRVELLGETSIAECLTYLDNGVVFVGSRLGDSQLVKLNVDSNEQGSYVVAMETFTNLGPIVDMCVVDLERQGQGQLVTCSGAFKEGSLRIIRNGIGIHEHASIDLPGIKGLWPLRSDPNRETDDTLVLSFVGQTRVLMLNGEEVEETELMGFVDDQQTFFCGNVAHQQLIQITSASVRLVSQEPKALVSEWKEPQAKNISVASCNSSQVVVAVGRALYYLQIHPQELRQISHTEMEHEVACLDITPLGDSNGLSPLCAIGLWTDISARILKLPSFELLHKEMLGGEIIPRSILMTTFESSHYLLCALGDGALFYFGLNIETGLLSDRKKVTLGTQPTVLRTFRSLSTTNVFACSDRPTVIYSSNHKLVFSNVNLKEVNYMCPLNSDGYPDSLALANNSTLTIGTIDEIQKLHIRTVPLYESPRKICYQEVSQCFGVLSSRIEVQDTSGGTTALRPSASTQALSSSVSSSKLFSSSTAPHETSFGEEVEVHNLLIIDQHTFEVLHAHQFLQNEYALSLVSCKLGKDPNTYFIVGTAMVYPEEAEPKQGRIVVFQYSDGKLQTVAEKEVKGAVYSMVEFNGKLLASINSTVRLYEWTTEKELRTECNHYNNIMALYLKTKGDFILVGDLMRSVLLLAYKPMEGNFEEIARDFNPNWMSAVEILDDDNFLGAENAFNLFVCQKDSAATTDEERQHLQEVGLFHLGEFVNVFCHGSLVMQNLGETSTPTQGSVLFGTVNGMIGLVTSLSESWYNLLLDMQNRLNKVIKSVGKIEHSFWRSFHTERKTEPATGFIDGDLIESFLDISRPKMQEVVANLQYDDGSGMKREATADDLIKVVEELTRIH
Procedure, shortened: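 Endogenous HiBiT knock-in on BRAF V600E in A375 cells (clone A375.10); 11-point half-log series, top 10 μM, 2, 6 or 24 h at 37° C. Lytic HiBiT luminescence, background-subtracted, normalized to DMSO; 4-parameter fit gives DC50, Emax (residual protein) and IP (inflection point).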

[2] = system: A375-NRAS^Q61K cells; assay: CTGlo Cell Viability Assay, A375-NRAS^Q61K (A375.11) cells, 96 hours; format: cell-based, human; settings: A375.11 (A375-NRAS^Q61K) cells; for CTGlo A375.11 96 hours Emax / Emax: lowest % viability achieved
Procedure, shortened: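 A375 cells carrying BRAF V600E and NRAS Q61K were seeded at 250 cells/well with a 10-point half-log dose series (max 10 μM final). After 96 h at 37 °C, viability was read as ATP luminescence (CellTiter-Glo), background-subtracted and normalized to DMSO (100%). GI50 from 4-parameter fit; Emax is the lowest % viability.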

[3] = A375.10 cells, BRAF V600E, 2 hours, inflection point, read-out: HiBiT-Degradation A375.10 BRAF 2 hours IP
[4] = A375.10 cells, BRAF V600E, 2 hours, read-out: HiBiT-Degradation A375.10 BRAF 2 hours DC50
[5] = A375.10 cells, BRAF V600E, 2 hours, residual protein remaining

Structure (SMILES)	HiBiT-Degradation A375.10 BRAF 2 hours Emax [1]	DC50 [1, 3] [nM]	DC50 [1, 4] [nM]	GI50 [2] [µM]	HiBiT-Degradation A375.10 BRAF 2 hours Emax [1, 5]	DC50 ([1]; A375.10 cells, BRAF V600E, 6 hours, inflection point, read-out: HiBiT-Degradation A375.10 BRAF 6 hours IP) [nM]	DC50 ([1]; A375.10 cells, BRAF V600E, 6 hours, read-out: HiBiT-Degradation A375.10 BRAF 6 hours DC50) [nM]	HiBiT-Degradation A375.10 BRAF 6 hours Emax ([1]; A375.10 cells, BRAF V600E, 6 hours, residual protein remaining)	HiBiT-Degradation A375.10 BRAF 24 hours Emax ([1]; A375.10 cells, HiBiT, BRAF V600E, 24 hours)	DC50 ([1]; A375.10 cells, HiBiT, BRAF V600E, 24 hours, read-out: HiBiT-Degradation A375.10 BRAF 24 hours DC50) [nM]	DC50 ([1]; A375.10 cells, HiBiT, BRAF V600E, 24 hours, read-out: HiBiT-Degradation A375.10 BRAF 24 hours IP) [nM]	Emax [1, 5] [%]	GI50 ([2]; Homo sapiens, 96 h) [µM]	CTGlo A375.11 96 hours Emax [2]	Emax ([2]; Homo sapiens, 96 h) [%]
CCN(C)S(=O)(=O)Nc1ccc(F)c(Oc2ccc3ncc(CCC4CCN(C5CCC(c6ccc(NC7CCC(=O)NC7=O)cc6F)CC5)CC4)nc3c2)c1C#N (single isomer, unassigned) [Compound 132, 7-[2-cyano-3-[[ethyl(methyl)sulfamoyl]amino]-6-fluoro-phenoxy]-2-[2-[1-[4-[4-[(2,6-dioxo-3-piperidyl)amino]-2-fluoro-phenyl]cyclohexyl]-4-piperidyl]ethyl]quinoxaline]		< 1000	< 1000	< 1	*** (<=50%)									** (<90% and >50%)	
N#Cc1c(NS(=O)(=O)C2CCCC2)ccc(F)c1Oc1ccc2ncn([C@H]3COC4(CCN(C5CCC(c6ccc(NC7CCC(=O)NC7=O)cc6F)CC5)CC4)C3)c(=O)c2c1 (single isomer, unassigned) [Compound 136]		< 1000	< 1000									< 50	< 1		< 50
CCN(C)S(=O)(=O)Nc1ccc(F)c(Oc2ccc3ncn(CCC4CCN(C5CCC(c6cc7c(cc6F)c(N6CCC(=O)NC6=O)nn7C)CC5)CC4)c(=O)c3c2)c1C#N (single isomer, unassigned) [Compound 137, 6-[2-cyano-3-[[ethyl(methyl)sulfamoyl]amino]-6-fluoro-phenoxy]-3-[2-[1-[4-[3-(2,4-dioxohexahydropyrimidin-1-yl)-5-fluoro-1-methyl-indazol-6-yl]cyclohexyl]-4-piperidyl]ethyl]-4-oxo-quinazoline]		< 1000	< 1000									50 to 90	1 to 10		50 to 90
CCN(C)S(=O)(=O)Nc1ccc(F)c(Oc2ccc3ncn(CCC4CCN(C5CCC(c6cc7c(cc6F)c(N6CCC(=O)NC6=O)nn7C)CC5)CC4)c(=O)c3c2)c1C#N (single isomer, unassigned) [Compound 138, 6-[2-cyano-3-[[ethyl(methyl)sulfamoyl]amino]-6-fluoro-phenoxy]-3-[2-[1-[4-[3-(2,4-dioxohexahydropyrimidin-1-yl)-5-fluoro-1-methyl-indazol-6-yl]cyclohexyl]-4-piperidyl]ethyl]-4-oxo-quinazoline]		< 1000	1000 to 10000	1 to 10	** (<90% and >50%)									** (<90% and >50%)	
CO[C@H]1CCN(S(=O)(=O)Nc2ccc(F)c(Oc3ccc4ncn([C@H]5COC6(CCN(C7CCC(c8ccc(NC9CCC(=O)NC9=O)cc8F)CC7)CC6)C5)c(=O)c4c3)c2C#N)C1 (single isomer, unassigned) [Compound 140]		< 1000	< 1000									< 50	< 1		< 50
N#Cc1c(NS(=O)(=O)N2CC[C@@H](F)C2)ccc(F)c1Oc1ccc2ncn(C3COC4(CCN(C5CCC(c6ccc(NC7CCC(=O)NC7=O)cc6F)CC5)CC4)C3)c(=O)c2c1 (single isomer, unassigned) [Compound 143]		< 1000	< 1000									< 50	< 1		< 50
CN(CCO)S(=O)(=O)Nc1ccc(F)c(Oc2ccc3ncn(C4CC5(CCN(C6CCC(c7cc8c(cc7F)c(N7CCC(=O)NC7=O)nn8C)CC6F)CC5)C4)c(=O)c3c2)c1C#N (single isomer, unassigned) [Compound 146, 6-[2-cyano-6-fluoro-3-[[2-hydroxyethyl(methyl)sulfamoyl]amino]phenoxy]-3-[7-[4-[3-(2,4-dioxohexahydropyrimidin-1-yl)-5-fluoro-1-methyl-indazol-6-yl]-2-fluoro-cyclohexyl]-7-azaspiro[3.5]nonan-2-yl]-4-oxo-quinazoline]	** (<90% and >50%)	< 1000	> 10000	> 10										** (<90% and >50%)	
CCN(C)S(=O)(=O)Nc1ccc(F)c(Oc2ccc3ncc(CC4CCN(C5CCC(c6ccc(NC7CCC(=O)NC7=O)cc6F)CC5)CC4)nc3c2)c1C#N (single isomer, unassigned) [Compound 147, 7-[2-cyano-3-[[ethyl(methyl)sulfamoyl]amino]-6-fluoro-phenoxy]-2-[[1-[4-[4-[(2,6-dioxo-3-piperidyl)amino]-2-fluoro-phenyl]cyclohexyl]-4-piperidyl]methyl]quinoxaline]		< 1000	> 10000									50 to 90	> 10		50 to 90

The next lines start with results.

HiBiT-Degradation A375.10 BRAF 2 hours Emax [1]	DC50 [1, 3] [nM]	DC50 [1, 4] [nM]	GI50 [2] [µM]	HiBiT-Degradation A375.10 BRAF 2 hours Emax [1, 5]	DC50 ([1]; A375.10 cells, BRAF V600E, 6 hours, inflection point, read-out: HiBiT-Degradation A375.10 BRAF 6 hours IP) [nM]	DC50 ([1]; A375.10 cells, BRAF V600E, 6 hours, read-out: HiBiT-Degradation A375.10 BRAF 6 hours DC50) [nM]	HiBiT-Degradation A375.10 BRAF 6 hours Emax ([1]; A375.10 cells, BRAF V600E, 6 hours, residual protein remaining)	HiBiT-Degradation A375.10 BRAF 24 hours Emax ([1]; A375.10 cells, HiBiT, BRAF V600E, 24 hours)	DC50 ([1]; A375.10 cells, HiBiT, BRAF V600E, 24 hours, read-out: HiBiT-Degradation A375.10 BRAF 24 hours DC50) [nM]	DC50 ([1]; A375.10 cells, HiBiT, BRAF V600E, 24 hours, read-out: HiBiT-Degradation A375.10 BRAF 24 hours IP) [nM]	Emax [1, 5] [%]	GI50 ([2]; Homo sapiens, 96 h) [µM]	Structure (SMILES)	CTGlo A375.11 96 hours Emax [2]	Emax ([2]; Homo sapiens, 96 h) [%]
** (<90% and >50%)	< 1000	< 1000	1 to 10										CCN(C)S(=O)(=O)Nc1ccc(F)c(Oc2ccc3ncc(OCC4CCN(C5CCC(c6cc7c(cc6F)c(N6CCC(=O)NC6=O)nn7C)CC5)CC4)nc3c2)c1C#N (single isomer, unassigned) [Compound 119, 7-[2-cyano-3-[[ethyl(methyl)sulfamoyl]amino]-6-fluoro-phenoxy]-2-[[1-[4-[3-(2,4-dioxohexahydropyrimidin-1-yl)-5-fluoro-1-methyl-indazol-6-yl]cyclohexyl]-4-piperidyl]methoxy]quinoxaline]	** (<90% and >50%)	
	< 1000	< 1000	< 1	*** (<=50%)	< 1000	< 1000	*** (<=50%)	*** (<=50%)	< 1000	< 1000			Cn1nc(N2CCC(=O)NC2=O)c2cc(F)c(C3CCC(N4CCC5(CC4)CC(n4cnc6ccc(Oc7c(F)ccc(NS(=O)(=O)N8CC[C@@H](F)C8)c7C#N)cc6c4=O)C5)CC3)cc21 (single isomer, unassigned) [Compound 123]	*** (<=50%)	
	< 1000	1000 to 10000									< 50	> 10	CCN(C)S(=O)(=O)Nc1ccc(F)c(Oc2ccc3ncc(OC4CCN(C5CCC(c6cc7c(cc6F)c(N6CCC(=O)NC6=O)nn7C)CC5)CC4)nc3c2)c1C#N (single isomer, unassigned) [Compound 124, 7-[2-cyano-3-[[ethyl(methyl)sulfamoyl]amino]-6-fluoro-phenoxy]-2-[[1-[4-[3-(2,4-dioxohexahydropyrimidin-1-yl)-5-fluoro-1-methyl-indazol-6-yl]cyclohexyl]-4-piperidyl]oxy]quinoxaline]		50 to 90
	< 1000	> 10000	> 10								50 to 90		CCN(C)S(=O)(=O)Nc1ccc(F)c(Oc2ccc3ncc(CCC4CCN(C5CCC(c6cc7c(cc6F)c(N6CCC(=O)NC6=O)nn7C)CC5)CC4)nc3c2)c1C#N (single isomer, unassigned) [Compound 128, 7-[2-cyano-3-[[ethyl(methyl)sulfamoyl]amino]-6-fluoro-phenoxy]-2-[2-[1-[4-[3-(2,4-dioxohexahydropyrimidin-1-yl)-5-fluoro-1-methyl-indazol-6-yl]cyclohexyl]-4-piperidyl]ethyl]quinoxaline]		50 to 90
	< 1000	< 1000	1 to 10	** (<90% and >50%)									CCN(C)S(=O)(=O)Nc1ccc(F)c(Oc2ccc3ncc(CCC4CCN(C5CCC(c6cc7c(cc6F)c(N6CCC(=O)NC6=O)nn7C)CC5)CC4)nc3c2)c1C#N (single isomer, unassigned) [Compound 129, 7-[2-cyano-3-[[ethyl(methyl)sulfamoyl]amino]-6-fluoro-phenoxy]-2-[2-[1-[4-[3-(2,4-dioxohexahydropyrimidin-1-yl)-5-fluoro-1-methyl-indazol-6-yl]cyclohexyl]-4-piperidyl]ethyl]quinoxaline]	** (<90% and >50%)	
	< 1000	> 10000	> 10								50 to 90		CCN(C)S(=O)(=O)Nc1ccc(F)c(Oc2ccc3ncc(CCC4CCN(C5CCC(c6ccc(NC7CCC(=O)NC7=O)cc6F)CC5)CC4)nc3c2)c1C#N (single isomer, unassigned) [Compound 131, 7-[2-cyano-3-[[ethyl(methyl)sulfamoyl]amino]-6-fluoro-phenoxy]-2-[2-[1-[4-[4-[(2,6-dioxo-3-piperidyl)amino]-2-fluoro-phenyl]cyclohexyl]-4-piperidyl]ethyl]quinoxaline]		50 to 90
